The values that follow come from patent publication US6441036B1 (priority 1998, dated 2002).

Data set [1] in a line: Lipid lowering effect in normal Wistar rats (Example 4). The class given is in vivo. To be noted: gavage once daily for 7 days; dose mg/day/kg body weight: TSA 15, EPA 1500, TTA 150.
Method: Phospholipids were measured by the enzymatic method of bioMérieux, Marcy-l{grave over ( )}Etoile, France, Triacylglycerol by the Technicon Method no. SA4-0324L90, USA and Cholesterol by the Technicon Method no. SA4-0305L90, USA.
Male Wistar rats, weighing 180-200 g at the start of the experiment, were housed individually in metal wire cages in a room maintained at 12 h light-dark cycles and a constant temperature of 20±3° C. The animals were acclimatised for one week under these conditions before the start of the experiments.
TTA, TSA and eicosapentaenoic acid (EPA) were suspended in 0.5% (w/v) carboxymethyl cellulose (CMC). Six animals were used for each treatment, and a 0.5% CMC solution was administrated to the rats as control. After administration of the test compound, the rats were fasted for 12 hours and anaesthetised with haloethan. The EPA and the fatty acid derivatives were administered by gastric intubation (gavage) once daily for 7 days. Blood samples were collected by cardiac puncture, and lipid concentrations in plasma were determined as outlined in the method section.
Data set [2] has as its system mitochondrial β-oxidation. Kind of data set: Effect of fatty acid analogues on mitochondrial β-oxidation in rat liver (Example 18). The class given is in vivo. To be noted: [1-14C]-palmitoyl-L-carnitine as substrate.
Method: Freshly isolated livers from individual old Zucker rats, were homogenised in ice-cold sucrose buffer (0.25 M sucrose, 10 mM HEPES (pH 7.4) and 2 mM EDTA). Post-nuclear and mitochondrial fractions were prepared using preparative differential centrifugation according to DeDuve et al. (De Duve, C., et al., Biochem. J., 60, 604-617 1955.) Modifications, purity and yield were as described earlier (Garras, A., et al., Biochim. Biophys. Acta, 1255, 154-160 1995.). Acid soluble products were measured in post-nuclear and mitochondrial enriched fractions, using [1-^14C]-palmitoyl-CoA and [1-^14C]-palmitoyl-L-carnitine (Radio-chemical Centre, Amersham, England) as substrates as described earlier (Willumsen, N., et al., J. Lipid Res., 34, 13-22 1993. Carnitine palmitoyltransferase-I and -II activities were measured in the post-nuclear and mitochondrial fractions essentially as described by Bremer (Bremer, J., Biochim. Biophys. Acta, 665, 628-631 1981.) and 3-hydroxy-3-methylglutharyl-CoA synthase was measured according to Clinkenbeard et al. (Clinkenbeard, K. D., et al., J. Biol. Chem, 250, 3108-3116 1975.) in the mitochondrial fractions.
Obese Zucker (fa/fa) rats were given a standard chow either with (n=6) or without (n=5) 0.15% TTA. Following 21 days of treatment, rats were killed by cervical dislocation and the livers were removed. […] Values are expressed as the mean±S.D.
For another data set, the system named is Escherichia coli. Briefly: Test for mutagenic activity in Escherichia coli strains. The class given is cell-based. The note with it: 3-1000 mg/plate (TTA), 2-5000 mg/plate (TSA). The source says:
(§1) Tests for mutagenic activity have been performed by Covance Laboratories Limited, England. […] Furthermore, TTA was not mutagenic when tested in mouse lymphoma cells […] L5178Y.

Data set [3] concerns cultured Chinese hamster ovary cells. Kind of data set: Chromosomal aberrations in cultured Chinese hamster ovary cells. To be noted: doses tested 12-140 mg/ml.
In another data set the test system is Salmonella typhimurium. Briefly: Test for mutagenic activity in Salmonella typhimurium strains. The class given is cell-based. The note with it: 3-1000 mg/plate (TTA), 2-5000 mg/plate (TSA).
Text: as §1

In data set [4] the test system is mouse lymphoma cells, L5178Y. Briefly: Mutagenicity test in mouse lymphoma cells L5178Y. The class given is cell-based. To be noted: concentration 2.5-50 mg/ml.
Text: as §1

Data set [5] can be described thus: Hepatic levels of triacylglycerol (Example 17). The class given is in vivo, Wistar rats. The note with it: fed 6 days, no prefeeding; TTA 150 mg/kg/day, TTP 300 mg/kg/day. Here is the method: Male Wistar rats had free access to water and rat maintenance chow. They were fed palmitic acid or fatty acid analogues suspended in 0.5% CMC for 6 days. In some experiments TTA or TTP were fed for 3 days before feeding both for 6 days. At the end of the experiment the rats were fasted overnight, killed, the liver removed and homogenized. Triacylglycerol was measured in the homogenate.

Take `CC/C=C\C/C=C\C/C=C\C/C=C\C/C=C\CCCC(=O)O` [EPA, eicosapentaenoic acid, reference compound]: in data set [1], the “Plasma lipids: cholesterol” value is recorded as 18 % reduction of control and the “Plasma lipids: triglycerides” value is on record as 20 % reduction of control.
As to `CCCCCCCCCCCCCCCC(=O)O` [Palm, palmitic acid], the “Mitochondrial β-oxidation activity” value in data set [2] is 0.47 ± 0.06 nmol/min/mg protein.
`CCCCCCCCCCCCCC[Se]CC(=O)O` [TSA, Tetradecylselenioacetic acid]: the Induction of mutations entry in the data set on Escherichia coli is listed as “did not induce mutations”. In addition, in data set [3], the Chromosomal aberrations result was “no aberrations were induced”. Besides, in the data set with Salmonella typhimurium, the Induction of mutations result is reported as “did not induce mutations”. Besides, in data set [1], the “Plasma lipids: cholesterol” value was 20 % reduction of control and the “Plasma lipids: triglycerides” value is 25 % reduction of control. The Mutagenicity entry in data set [4] is listed as “not to be mutagenic”.
Consider `CCCCCCCCCCCCCCSCCC(=O)O` [reference compound], for which the “Hepatic TG (triacylglycerol)” value in data set [5] turned out to be 95.4 ± 14.7 µmol/g.
